Reference: patent US20250145642A1, “BICYCLIC HETEROARENES AND METHODS OF THEIR USE” (Kineta, Inc., priority 2021, published 2025)
Counter-ions that a name gives are not always drawn.

biological target: full-length human PIKFYVE (N-terminal GST-fusion) (Homo sapiens (Human), UniProt Q9Y2I7, L932S/Q1183K/Q995L/S1033A/S696N/T998S); test: PIKfyve biochemical assay (ADP-Glo Kinase assay, Carna Biosciences); settings: ADP-Glo, full-length human GST-PIKFYVE, 10 μM to 3 nM; read-out: hPIKfyve IC50
Summary of the method: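 Baculovirus-expressed, glutathione-purified GST-tagged full-length human PIKFYVE (S696N/L932S/Q995L/T998S/S1033A/Q1183K) reacted with substrate and ATP in 50 mM MOPS, 1 mM DTT, pH 7.2, 1 h at room temperature. ADP formed read by ADP-Glo luminescence.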

Chain of full-length human PIKFYVE (N-terminal GST-fusion) (Q9Y2I7 whole entry S696N/L932S/Q995L/T998S/S1033A/Q1183K, the tested form may be a part): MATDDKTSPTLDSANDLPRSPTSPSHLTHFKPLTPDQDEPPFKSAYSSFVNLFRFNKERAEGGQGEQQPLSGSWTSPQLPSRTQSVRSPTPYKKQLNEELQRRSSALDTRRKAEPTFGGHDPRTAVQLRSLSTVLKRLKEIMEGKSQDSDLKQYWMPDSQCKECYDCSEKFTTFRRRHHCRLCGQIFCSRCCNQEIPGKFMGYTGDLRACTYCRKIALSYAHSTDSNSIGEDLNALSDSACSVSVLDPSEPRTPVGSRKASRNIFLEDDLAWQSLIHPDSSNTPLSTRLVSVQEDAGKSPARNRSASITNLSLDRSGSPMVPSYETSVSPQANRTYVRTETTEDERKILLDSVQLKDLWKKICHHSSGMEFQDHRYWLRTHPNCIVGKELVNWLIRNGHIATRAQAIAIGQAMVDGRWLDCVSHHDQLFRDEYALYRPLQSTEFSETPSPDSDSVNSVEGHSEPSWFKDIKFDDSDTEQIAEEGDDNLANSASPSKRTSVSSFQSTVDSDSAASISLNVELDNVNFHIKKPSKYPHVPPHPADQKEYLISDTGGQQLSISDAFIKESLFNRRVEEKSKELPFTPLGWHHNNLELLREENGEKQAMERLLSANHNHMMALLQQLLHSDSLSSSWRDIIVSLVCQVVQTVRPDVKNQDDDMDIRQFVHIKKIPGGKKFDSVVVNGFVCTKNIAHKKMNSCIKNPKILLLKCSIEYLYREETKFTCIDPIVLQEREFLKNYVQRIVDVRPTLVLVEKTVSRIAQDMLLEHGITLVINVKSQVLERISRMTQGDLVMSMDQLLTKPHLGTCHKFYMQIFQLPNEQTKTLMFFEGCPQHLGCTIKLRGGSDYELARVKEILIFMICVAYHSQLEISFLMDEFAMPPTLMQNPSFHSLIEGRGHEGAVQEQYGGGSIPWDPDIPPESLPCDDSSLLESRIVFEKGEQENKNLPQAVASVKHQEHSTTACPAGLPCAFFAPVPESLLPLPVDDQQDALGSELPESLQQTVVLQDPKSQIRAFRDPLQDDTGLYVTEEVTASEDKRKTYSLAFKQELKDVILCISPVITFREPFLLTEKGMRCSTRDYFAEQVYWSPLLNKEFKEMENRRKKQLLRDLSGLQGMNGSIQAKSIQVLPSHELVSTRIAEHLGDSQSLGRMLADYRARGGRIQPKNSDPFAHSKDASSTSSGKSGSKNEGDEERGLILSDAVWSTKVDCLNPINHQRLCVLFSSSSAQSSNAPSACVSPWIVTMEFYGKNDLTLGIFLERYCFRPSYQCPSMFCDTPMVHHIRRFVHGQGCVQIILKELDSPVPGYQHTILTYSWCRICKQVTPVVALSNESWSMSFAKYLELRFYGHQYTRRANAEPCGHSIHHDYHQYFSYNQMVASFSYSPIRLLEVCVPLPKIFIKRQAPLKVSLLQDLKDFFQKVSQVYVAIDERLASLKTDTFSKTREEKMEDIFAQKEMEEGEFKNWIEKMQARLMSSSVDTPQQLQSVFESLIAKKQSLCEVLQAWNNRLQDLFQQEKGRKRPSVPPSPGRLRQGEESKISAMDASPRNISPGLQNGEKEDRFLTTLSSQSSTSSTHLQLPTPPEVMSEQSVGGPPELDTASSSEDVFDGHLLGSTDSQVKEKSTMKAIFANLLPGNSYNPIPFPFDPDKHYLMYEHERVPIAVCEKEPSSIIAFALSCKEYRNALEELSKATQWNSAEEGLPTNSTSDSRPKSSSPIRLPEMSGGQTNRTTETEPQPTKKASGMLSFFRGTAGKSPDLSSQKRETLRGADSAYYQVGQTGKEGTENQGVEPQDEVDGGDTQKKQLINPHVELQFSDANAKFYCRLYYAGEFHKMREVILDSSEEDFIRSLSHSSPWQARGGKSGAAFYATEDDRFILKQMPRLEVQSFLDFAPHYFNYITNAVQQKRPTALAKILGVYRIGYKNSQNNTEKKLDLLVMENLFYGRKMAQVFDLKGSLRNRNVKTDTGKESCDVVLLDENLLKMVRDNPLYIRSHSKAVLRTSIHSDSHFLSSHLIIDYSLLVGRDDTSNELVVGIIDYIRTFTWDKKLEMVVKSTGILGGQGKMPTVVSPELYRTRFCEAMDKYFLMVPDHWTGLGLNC

| Compound | IC50 [µM] |
| --- | --- |
| c1cncc(N2CCc3c(-c4ccoc4)nc(N4CCOCC4)nc32)c1 [Compound 88, 4-(4-(furan-3-yl)-7-(pyridin-3-yl)-6,7-dihydro-6H-pyrrolo[2,3-d]pyrimidin-2-yl)morpholine] | 0.01 to 0.1 |
| COc1cccc(-c2c[nH]c3c(-c4ccncc4)nc(N4CCOCC4)nc23)n1 [Compound 139, 4-(7-(6-methoxypyridin-2-yl)-4-(pyridin-4-yl)-5H-pyrrolo[3,2-d]pyrimidin-2-yl)morpholine] | 0.01 to 0.1 |
| c1ccc(-n2ncc3c(N4CCOCC4)nc(OCc4cccnc4)nc32)cc1 [Compound 131, 4-(1-phenyl-6-(pyridin-3-ylmethoxy)-1H-pyrazolo[3,4-d]pyrimidin-4-yl)morpholine] | 1 to 10 |
| 4-(7-(3-fluorophenyl)-4-(pyridin-3-ylmethoxy)-6,7-dihydro-5H-pyrrolo[2,3-d]pyrimidin-2-yl)morpholine [Compound 3] | 0.1 to 1 |
| c1ccc(-c2nccc(-c3nc(N4CCOCC4)nc4c3CCN4c3ccncc3)n2)cc1 [Compound 125, 4-(4-(2-phenylpyrimidin-4-yl)-7-(pyridin-4-yl)-6,7-dihydro-5H-pyrrolo[2,3-d]pyrimidin-2-yl)morpholine] | 0.01 to 0.1 |
| c1ccc(N2CCc3c(OCc4ccncc4)nc(N4CCOCC4)nc32)cc1 [Compound 26, 4-(7-phenyl-4-(pyridin-4-ylmethoxy)-6,7-dihydro-5H-pyrrolo[2,3-d]pyrimidin-2-yl)morpholine] | 0.1 to 1 |
| OCC(O)COc1nc(N2CCOCC2)nc2c1CCN2c1ccccc1 (centres unmarked) [Compound 43, 3-((2-morpholino-7-phenyl-6,7-dihydro-6H-pyrrolo[2,3-d]pyrimidin-4-yl)oxy)propane-1,2-diol] | 0.1 to 1 |
| O=C1COc2c(OCc3cccnc3)nc(N3CCOCC3)nc2N1c1ccccc1 [Compound 130, 2-morpholino-8-phenyl-4-(pyridin-3-ylmethoxy)-6H-pyrimido[5,4-b][1,4]oxazin-7(8H)-one] | 0.1 to 1 |
| c1ccc(-c2cncc(N3CCc4c(Oc5cccnc5)nc(N5CCOCC5)nc43)c2)cc1 [Compound 67, 4-(7-(5-phenylpyridin-3-yl)-4-(pyridin-3-yloxy)-6,7-dihydro-5H-pyrrolo[2,3-d]pyrimidin-2-yl)morpholine] | 0.01 to 0.1 |
| COc1cccc(C#Cc2nc(N3CCOCC3)nc3c2CCN3c2cccnc2)c1 [Compound 85, 4-(4-((3-methoxyphenyl)ethynyl)-7-(pyridin-3-yl)-6,7-dihydro-5H-pyrrolo[2,3-d]pyrimidin-2-yl)morpholine] | 0.1 to 1 |
| CN1CCCC(CCOc2nc(N3CCOCC3)nc3c2CCN3c2cccnc2)C1 (centres unmarked) [Compound 11, 4-(4-(2-(1-methylpiperidin-3-yl)ethoxy)-7-(pyridin-3-yl)-6,7-dihydro-5H-pyrrolo[2,3-d]pyrimidin-2-yl)morpholine] | 0.01 to 0.1 |
| CN1CCC(c2nc(N3CCOCC3)nc3c2CCN3c2cccnc2)CC1 [Compound 109, 4-(4-(1-methylpiperidin-4-yl)-7-(pyridin-3-yl)-6,7-dihydro-5H-pyrrolo[2,3-d]pyrimidin-2-yl)morpholine] | 1 to 10 |
| c1ccc(-n2cnc3c(-c4ccncc4)nc(N4CCOCC4)nc32)cc1 [Compound 128, 4-(9-phenyl-6-(pyridin-4-yl)-9H-purin-2-yl)morpholine] | 0.01 to 0.1 |
| CN1CCCC(COc2nc(N3CCOCC3)nc3c2CCN3c2ccccc2)C1 (centres unmarked) [Compound 28, 4-(4-((1-methylpiperidin-3-yl)methoxy)-7-phenyl-6,7-dihydro-5H-pyrrolo[2,3-d]pyrimidin-2-yl)morpholine.formate] | 0.1 to 1 |
| CN1CCC(COc2nc(N3CCOCC3)nc3c2CCN3c2cccnc2)C1 (centres unmarked) [Compound 35, 4-(4-((1-methylpyrrolidin-3-yl)methoxy)-7-(pyridin-3-yl)-6,7-dihydro-6H-pyrrolo[2,3-d]pyrimidin-2-yl)morpholine] | 0.1 to 1 |
| COc1cccc(C2CC2c2nc(N3CCOCC3)nc3c2CCN3c2cccnc2)c1 (centres unmarked) [Compound 122, 4-(4-(2-(3-methoxyphenyl)cyclopropyl)-7-(pyridin-3-yl)-6,7-dihydro-5H-pyrrolo[2,3-d]pyrimidin-2-yl)morpholine] | 0.1 to 1 |
| c1cncc(-c2nc(N3CCOCC3)nc3c2CCN3c2ccc3c(c2)OCO3)c1 [Compound 102, 4-(7-(benzo[d][1,3]dioxol-5-yl)-4-(pyridin-3-yl)-6,7-dihydro-5H-pyrrolo[2,3-d]pyrimidin-2-yl)morpholine] | 0.01 to 0.1 |
| c1ccc(N2CCc3c(-c4ccnnc4)nc(N4CCOCC4)nc32)cc1 [Compound 99, 4-(7-phenyl-4-(pyridazin-4-yl)-6,7-dihydro-5H-pyrrolo[2,3-d]pyrimidin-2-yl)morpholine] | 0.01 to 0.1 |
| c1ccc(N2CCc3c(OCc4cnccn4)nc(N4CCOCC4)nc32)cc1 [Compound 15, 4-(7-phenyl-4-(pyrazin-2-ylmethoxy)-6,7-dihydro-5H-pyrrolo[2,3-d]pyrimidin-2-yl)morpholine] | 0.01 to 0.1 |

| Compound | IC50 [µM] |
| --- | --- |
| c1cncc(N2CCc3c(OCC4CCNC4)nc(N4CCOCC4)nc32)c1 (centres unmarked) [Compound 34, 4-(7-(pyridin-3-yl)-4-(pyrrolidin-3-ylmethoxy)-6,7-dihydro-5H-pyrrolo[2,3-d]pyrimidin-2-yl)morpholine] | 0.1 to 1 |
| c1ccc(N2CCc3c(COCc4ccccn4)nc(N4CCOCC4)nc32)cc1 [Compound 62, 4-(7-phenyl-4-((pyridin-2-ylmethoxy)methyl)-6,7-dihydro-5H-pyrrolo[2,3-d]pyrimidin-2-yl)morpholine] | 0.01 to 0.1 |
| Fc1cccc(N2CCc3c(Oc4cccnc4)nc(N4CCOCC4)nc32)c1 [Compound 56, 4-(7-(3-fluorophenyl)-4-(pyridin-3-yloxy)-6,7-dihydro-5H-pyrrolo[2,3-d]pyrimidin-2-yl)morpholine] | 0.01 to 0.1 |
| c1ccc(Oc2nc(N3CCOCC3)nc3c2CCN3c2cccnc2)nc1 [Compound 51, 4-(4-(pyridin-2-yloxy)-7-(pyridin-3-yl)-6,7-dihydro-5H-pyrrolo[2,3-d]pyrimidin-2-yl)morpholine] | 0.1 to 1 |
| CC(C)(C)OC(=O)N1CC(COc2nc(N3CCOCC3)nc3c2CCN3c2cccnc2)C1 [Compound 37, tert-butyl 3-(((2-morpholino-7-(pyridin-3-yl)-6,7-dihydro-5H-pyrrolo[2,3-d]pyrimidin-4-yl)oxy)methyl)azetidine-1-carboxylate] | 0.1 to 1 |
| c1ccc(N2CCc3c(N4CCOCC4)nc(N4CCOCC4)nc32)cc1 [Compound 78, 4,4′-(7-phenyl-6,7-dihydro-5H-pyrrolo[2,3-d]pyrimidine-2,4-diyl)dimorpholine] | 0.01 to 0.1 |
| c1ccc(N2CCc3c(Oc4ccncc4)nc(N4CCOCC4)nc32)cc1 [Compound 54, 4-(7-phenyl-4-(pyridin-4-yloxy)-6,7-dihydro-5H-pyrrolo[2,3-d]pyrimidin-2-yl)morpholine] | 0.01 to 0.1 |
| c1ccc(-n2cc(N3CCc4c(Oc5cccnc5)nc(N5CCOCC5)nc43)cn2)cc1 [Compound 71, 4-(7-(1-phenyl-1H-pyrazol-4-yl)-4-(pyridin-3-yloxy)-6,7-dihydro-5H-pyrrolo[2,3-d]pyrimidin-2-yl)morpholine] | 0.01 to 0.1 |
| c1ccc(N2CCc3c(OCc4ccccn4)nc(N4CCOCC4)nc32)cc1 [Compound 24, 4-(7-phenyl-4-(pyridin-2-ylmethoxy)-6,7-dihydro-5H-pyrrolo[2,3-d]pyrimidin-2-yl)morpholine] | 0.01 to 0.1 |
| CC(=O)N1CCC(COc2nc(N3CCOCC3)nc3c2CCN3c2cccnc2)C1 (centres unmarked) [Compound 36, 1-(3-(((2-morpholino-7-(pyridin-3-yl)-6,7-dihydro-5H-pyrrolo[2,3-d]pyrimidin-4-yl)oxy)methyl)pyrrolidin-1-yl)ethan-1-one] | 0.1 to 1 |
| c1cncc(COc2nc(N3CCOCC3)nc3c2CCN3c2cccnc2)c1 [Compound 32, 4-(7-(pyridin-3-yl)-4-(pyridin-3-ylmethoxy)-6,7-dihydro-5H-pyrrolo[2,3-d]pyrimidin-2-yl)morpholine] | 0.1 to 1 |
| CC(C)(O)Cc1nc(N2CCOCC2)nc2c1CCN2c1ccccc1 [Compound 46, 2-methyl-1-(2-morpholino-7-phenyl-6,7-dihydro-5H-pyrrolo[2,3-d]pyrimidin-4-yl)propan-2-ol] | 0.01 to 0.1 |
| CN1CCCC(COc2nc(N3CCOCC3)nc3c2CCN3c2cnn(C)c2)C1 (centres unmarked) [Compound 18] | 1 to 10 |
| 4-(6-methyl-7-(pyridin-4-yl)-4-(tetrahydrofuran-3-yl)-6,7-dihydro-5H-pyrrolo[2,3-d]pyrimidin-2-yl)morpholine [Compound 98] | 0.01 to 0.1 |
| c1ccc(-c2nccc(-c3nc(N4CCOCC4)nc4c3CCN4c3cccnc3)n2)cc1 [Compound 124, 4-(4-(2-phenylpyrimidin-4-yl)-7-(pyridin-3-yl)-6,7-dihydro-5H-pyrrolo[2,3-d]pyrimidin-2-yl)morpholine hydrochloride] | 0.01 to 0.1 |
| c1ccc(N2CCc3c(COC4CCOCC4)nc(N4CCOCC4)nc32)cc1 [Compound 61, 4-(7-phenyl-4-(((tetrahydro-2H-pyran-4-yl)oxy)methyl)-6,7-dihydro-5H-pyrrolo[2,3-d]pyrimidin-2-yl)morpholine] | 0.1 to 1 |
| c1ccc(N2CCc3c(COc4cccnc4)nc(N4CCOCC4)nc32)cc1 [Compound 59, 4-(7-phenyl-4-((pyridin-3-yloxy)methyl)-6,7-dihydro-6H-pyrrolo[2,3-d]pyrimidin-2-yl)morpholine] | 0.1 to 1 |
| c1cc(-c2c[nH]c3c(OCc4cccnn4)nc(N4CCOCC4)nc23)cc(-n2cccn2)c1 [Compound 150, 4-(7-(3-(1H-pyrazol-1-yl)phenyl)-4-(pyridazin-3-ylmethoxy)-6H-pyrrolo[3,2-d]pyrimidin-2-yl)morpholine] | 0.01 to 0.1 |
| c1ccc(N2CCc3c(OCCC4CCCO4)nc(N4CCOCC4)nc32)cc1 (centres unmarked) [Compound 30, 4-(7-phenyl-4-(2-(tetrahydrofuran-2-yl)ethoxy)-6,7-dihydro-5H-pyrrolo[2,3-d]pyrimidin-2-yl)morpholine] | 0.1 to 1 |
